Source: patent EP1171607B1, “STREPTOKINASE FRAGMENTS AND THEIR USE FOR INHIBITING CELL DEATH” (Rabkin, Simon W., priority 1999, dated 2000)
Where no end group is shown, it is not given here.

Legend:
M07E = M07E starved 30 hours in 1% fetal calf serum; 20 µg/ml peptide
Method: (§1) The hematopoietic, growth factor dependent cell lines, M07E and TF-1 (Mijajima, CDNAX Research Institute, Palo Alto, California), were starved for 30 hours in DMEM containing 1% fetal calf serum (Hyclone, Logan, Utah) in the presence or absence of 20 µg/ml of the 20mer peptide (SEQ. ID NO. 6). Cell viability was measured by one of two methods, trypan blue exclusion or ^3H-thymidine incorporation (Alai et al., J. Biol. Chem. 267:18021-18025, 1992).

TF-1 = TF-1 starved 30 hours in 1% fetal calf serum; 20 µg/ml peptide
Method: as §1

## SVDVEYTQFTDFRGKLTKLL [Peptide 20mer]
M07E
  TRYPAN BLUE COUNTS (% VIABILITY): 20 ± 0.5%
TF-1
  TRYPAN BLUE COUNTS (% VIABILITY): 29 ± 1%
